Measurements taken from patent US10828143B2, “Tissue-engineered bowel constructs” (Wake Forest University Health Sciences, priority 2015, dated 2020).
“Also recorded” adds a separate entry of the source.

Assays:
Set-up in all cases: species or system human
[1] = test system: circular strips of implanted engineered sphincter and gut segments; assay: Real time force generation of circular strips of harvested sphincters and gut tissues
circular strips of hTEB = assay: Organ bath studies of hTEB circular strips following omentum implantation
[2] = test system: sphincter and rectal cuff cross sections; assay: Physiological studies on cross sections of harvested sphincter and rectal cuff

## COC(=O)[C@@H](N)CCCNC(=N)N[N+](=O)[O-].Cl [LNAME, Nω-Nitro-L-arginine methyl ester hydrochloride]
[1]; gut segments, without LNAME −355±8 μN, in µN
  EFS-induced relaxation after LNAME pre-treatment: −223±29
[1]; pre-incubation of implants with LNAME
  effect on magnitude of EFS-induced relaxation: significantly reduced
[1]; sphincters, without LNAME −294±26 μN
  EFS-induced relaxation after LNAME pre-treatment: −140±6 μN
Circular strips of hTEB; pretreatment with LNAME
  inhibition of EFS-induced relaxation: 50%

## CN1[C@@H]2CC[C@H]1C[C@@H](OC(=O)C(CO)c1ccccc1)C2 (stereo partly shown) [atropine]
Circular strips of hTEB
  effect on ACh-induced contraction: did not cause a contraction; also recorded: inhibited

## NC1=N[C@H](O)[C@H]2[C@H]3O[C@]4(O)O[C@@H]([C@@H](O)[C@@]2(N1)[C@@H]4O)[C@]3(O)CO [TTX, tetrodotoxin]
[2]
  effect on Ach-induced contraction: significantly attenuated
  effect on EFS-induced relaxation: completely inhibited
  effect on VIP-induced relaxation: significantly diminished
[1]
  effect on EFS-induced relaxation: completely abolished
Circular strips of hTEB
  effect on EFS-induced relaxation: abolished
